Test results published in patent US6485713B1, “Sunscreen compositions and methods and materials for producing the same” (The C. P. Hall Company, priority 2002, dated 2002).
“And” between values parts separate entries of the source, which are not always exact repeats. Equal values may be shown once. Read-outs that look alike come from different tables or passages of the source. Marks after values point to notes of the source that are not given here.

What was measured:
[1] = Dielectric constants of sunscreen ingredients at 25° C.; type: physicochemical; conditions: for Dielectric Constant at 25° C. (ε), estimated value: marked estimated; for Dielectric Constant at 25° C. (ε): neat ingredient
Excerpt: A step of determining the polarity of a mixture or an emulsion can be performed in various ways. For example, determining a polarity can include measuring a property that is a function of polarity, such as a dielectric constant. Measurement of a dielectric constant of a liquid can be performed by various sensors, such as immersion probes, flow-through probes, and cup-type probes, attached to various meters, such as those available from the Brookhaven Instruments Corporation of Holtsville, N.Y. (e.g., model BI-870) and the Scientifica Company of Princeton, N.J. (e.g. models 850 and 870). For consistency of comparison, preferably all measurements for a particular filter system are performed at substantially the same sample temperature, e.g., by use of a water bath. Generally, the measured dielectric constant of a substance will increase at lower temperatures and decrease at higher temperatures.
A mixture of solvent system and filter system, in accordance with one preferred embodiment, are combined with well-known cosmetically-acceptable additives, such as moisturizers, emollients, solvents, co-solvents, lubricants, thickeners, emulsifiers and/or other common cosmetic formulation additives for solubility of sunscreen active compounds, emulsification, thickening and to provide other skin enhancement, e.g., moisturizing properties. The compositions can be produced as oily lotions, gels, solid sticks, emulsions, aerosols, and all other forms of cosmetic compositions. The dielectric constants of various sunscreen additive materials are well known, see, Dielectric Constant Reference Guide of ASI Instruments, Inc., pages 1-64, (http://asiinstruments.com/dcl.html), hereby incorporated herein by reference.

[2] = marked literature value, cited from earlier work
[3] = Solvency testing of solvents for octyl triazone; type: physicochemical; conditions: solute octyl triazone dissolved in the named solvent
Excerpt: (§1) Examples of crystalline UV filters include oxybenzone, avobenzone, and octyl triazone (sold under the trade name UVINUL T-150 by BASF Corporation) and methylbenzilidene camphor.

[4] = Solvency testing of solvents for avobenzone; type: physicochemical; conditions: solute avobenzone dissolved in the named solvent
Excerpt: as §1

[5] = Solvency testing of solvents for oxybenzone; type: physicochemical; conditions: solute oxybenzone dissolved in the named solvent
Excerpt: as §1

[6] = Solvency for crystalline UV filters, comparison with traditional solvents; type: physicochemical; conditions: compared to traditional solvents used in sunscreen compositions
Excerpt: as §1

| Compound | Dielectric Constant at 25° C. (ε) [1] | Solvency for Octyl triazone [3] | Solvency for Avobenzone [4] | Solvency for Oxybenzone [5] | further results |
| --- | --- | --- | --- | --- | --- |
| COc1ccc(C(=O)CC(=O)c2ccc(C(C)(C)C)cc2)cc1 [Avobenzone, 4-(1,1-dimethylethyl)-4′-methoxydibenzoylmethane, reference compound] | – | – | – | – | Dielectric Constant at 25° C. (ε), estimated value [1]: ~10 (estimated.); Dielectric Constant at 25° C. (ε), estimated value ([1]; listed as avobenzone): ~10* |
| COc1ccc(C(=O)c2ccccc2)c(O)c1 [Benzophenone-3, benzophenone-3] | – | – | – | – | Dielectric Constant at 25° C. (ε), literature value ([2]; listed as benzophenone-3): 13^†; Dielectric Constant at 25° C. (ε), literature value [2]: 13 |
| CCCCCCC(CCCC)COC(=O)CC(O)C(=O)OCC(CCCC)CCCCCC (centres unmarked) [Dibutyloctyl malate, bis(2-butyloctyl)malate] | 4.65 | – | – | – | – |
| CCCCC(CC)COC(=O)c1ccc2cc(C(=O)OCC(CC)CCCC)ccc2c1 (centres unmarked) [Diethylhexyl 2,6-naphthalate] | 4.34 | – | – | – | – |
| CCCCC(CC)COC(=O)CCCCC(=O)OCC(CC)CCCC (centres unmarked) [Diethylhexyl adipate] | 4.21 | <5% wt. % | 10% wt. % | 20% wt. % | – |
| CC(C)CCOC(=O)CC(O)C(=O)OCCC(C)C (centres unmarked) [Diisoamyl malate] | 7.42 | – | – | – | – |
| CCCCCCCCOC(=O)CC(O)C(=O)OCCCCCCCC (centres unmarked) [Dioctyl malate] | 4.74 and 5.78 | – | – | – | – |
| CCCCC(CC)COC(=O)C=Cc1ccc(OC)cc1 (centres unmarked) [Ethylhexyl methoxycinnamate, 2-ethylhexyl paramethoxycinnamate, reference compound] | 5.98 | 15% wt. % | 17% wt. % | 24% wt. % | – |
| CCCCCCCCCCCCCCCC(=O)OCC(CC)CCCC (centres unmarked) [Ethylhexyl palmitate] | 3.06 | – | – | – | – |
| CCCCC(CC)COC(=O)c1ccccc1O (centres unmarked) [Ethylhexyl salicylate, 2-ethylhexyl salicylate, reference compound] | 6.20 | 5% wt. % | 16% wt. % | 18% wt. % | Dielectric Constant at 25° C. (ε) ([1]; listed as octyl salicylate): 6.2 |
| CCCCCCCCCCCCCCCCCC(=O)OCC(CC)CCCC (centres unmarked) [Ethylhexyl stearate] | 3.05 | – | – | – | – |
| CCCCCCCCCCCCCCCCCC(C)C [Isoeicosane] | 2.04 | – | – | – | – |
| CCCCCCCCCCCCCC(=O)OC(C)C [Isopropyl myristate] | 3.24 | <5% wt. % | 15% wt. % | 20% wt. % | – |
| CCCCCCCCCCCCCCCC(=O)OC(C)C [Isopropyl palmitate] | 3.20 | – | – | – | – |
| CCCCCCCCCC(=O)N(C)C [N,N-dimethyldecanamide] | 12.43 | 37% wt. % | 37% wt. % | 38% wt. % | ability to solvate crystalline UV filters (in words) [6]: far superior |
| CCCCC(CC)COC(=O)C(C#N)=C(c1ccccc1)c1ccccc1 (centres unmarked) [Octocrylene, 2-ethylhexyl-2-cyano-3,3 diphenylacrylate, reference compound] | 11.08 | 1% wt. % | 27% wt. % | 32% wt. % | – |
| O [Water] | 80 | – | – | – | – |
| Diethylhexyl malate | 4.74 and 5.88 | 5% wt. % and <5% wt. % | 12.5% wt. % and 15% wt. % | 19% wt. % and 15% wt. % | Dielectric Constant at 25° C. (ε) ([1]; listed as diethylhexyl malate): 5.88 |
| Isododecyl alcohol dimer with HDI | – | – | – | – | Dielectric Constant at 25° C. (ε), estimated value [1]: ~10 (estimated.); Dielectric Constant at 25° C. (ε), estimated value ([1]; listed as isododecyl alcohol dimer w/HDI): ~10* |
| Octyldodecyl neopentanoate | 3.04 | – | – | – | – |
| PPG-2 myristyl ether propionate | 3.88 | – | – | – | – |
| isododecyl alcohol dimer with isopherone diisocyanate (IPDI) [Isododecyl alcohol dimer with IPDI] | – | – | – | – | Dielectric Constant at 25° C. (ε), estimated value [1]: ~10 (estimated.); Dielectric Constant at 25° C. (ε), estimated value ([1]; listed as isododecyl alcohol dimer w/IPDI): ~10* |
